In ChEMBL document CHEMBL3507680, “University of Dundee, Gates Library screen for HepG2 cell viability”:

Experiment: Human HepG2 cell viability assay in 384 well format
Assay type: toxicity, cell-based
Design: dose 125 nL, time 70.5 hour; concentration not given beside the values
Settings: HepG2 cells, read-out: Inhibition

Compound	cytotoxicity at 70.5 h [%]
COc1ccc(C2CCN(CCCC#N)CC2)cc1	27.7
O=S(=O)(NCC1CCN(CCN2CCOCC2)C1)c1ccccc1F (stereo unspecified)	13.9
CC(C)CN1CCC(NC(=O)c2ccc(F)cc2F)CC1	0.0411
Cc1ccc(O)c(C(=O)N2CCCC(NC(=O)C(C)C)C2)c1 (stereo unspecified)	-6.92
CC(=O)N[C@@H](C)C(=O)NCc1cccnc1Oc1ccccc1F	-11.6
O=C(Cn1cc(I)cn1)N1CCCC1	-3.36
NC(=O)NC(CC(=O)N1CCc2sccc2C1)c1cccc(Br)c1 (stereo unspecified)	-18.1
CC(c1cccc(-c2cn(Cc3ccoc3)nn2)c1)N(C)C (stereo unspecified)	-2.66
COc1ccc(NC(=O)CCc2c(C)nc3cc(O)nn3c2C)cn1	-2.2
COc1ncc(C(=O)NCc2ccc(Br)cc2)cn1	-2.74
O=C(NCC1CC1)C1CSCN1S(=O)(=O)c1cc(F)cc(F)c1 (stereo unspecified)	-15.2
Cn1cc(-c2cnc(-c3ccnn3C)nc2)cc1C(=O)NC1CC1	-4.34
CCOc1ccc(-c2ccnc(C3CC3)n2)cc1C(=O)O	-3.39
CCc1c(C)nc(C)nc1N1C[C@@H](CN(CC)CCO)[C@@H](CO)C1	10.3
O=C(Nc1cc(C(F)(F)F)c[nH]c1=O)C1CCCNC1 (stereo unspecified)	-8
Cc1cnn(C2CN(CC(O)c3ccccc3)C2)c1 (stereo unspecified)	27.4
CCC(C)N(CCOC)Cc1nc2c(cnn2C)c(=O)[nH]1 (stereo unspecified)	17.1
O=C(NC[C@H]1CC[C@H](c2ccnc3ncnn32)CC1)C1CC1	22.4
Cc1ccc(CC(=O)N2CCN(c3nccs3)CC2)s1	14.7
CCOc1ccnc(N2CCCN(c3nc(C4CC4)ns3)CC2)n1	4.37
CN1CCC(C(=O)NCc2nncn2-c2ccccc2)CC1=O (stereo unspecified)	-16.9

Compound	cytotoxicity at 70.5 h [%]
CCC1CN(c2cnn(-c3ccccc3)c(=O)c2Cl)CCO1 (stereo unspecified)	-12.4
Cc1nc2cc(C3CCN(Cc4cccc(F)c4F)C3)nn2c(O)c1C (stereo unspecified)	-20.4
Cc1ccc2c(n1)N(CCN(C)C)CCN(C(=O)c1ccsc1)C2	-5.53
CN1CCN(C(=O)c2cccc(CN3CCOCC3)c2)CC1	-2.6
COc1ccccc1CCNC(=O)NCC(=O)Nc1cccnc1	-0.968
COc1ccc(C2=Nn3c(CCCN)nnc3-c3ccccc3C2)cc1	4.99
c1ncn(CC2CN(Cc3ccc4c(c3)OCCO4)CCO2)n1 (stereo unspecified)	-0.441
COc1coc(CN2CCCC(CCc3ccccc3C)C2)cc1=O (stereo unspecified)	2.52
Cc1[nH]nc(CCC(=O)NCC2CCCN(C3CCCC3)C2)c1C (stereo unspecified)	-5.73
C[C@H]1CN2C[C@H](O)CC2CN1Cc1ccncc1 (stereo partly specified)	-1.34
CN1CCN(C(=O)CCn2c(C(F)(F)F)cc3cccnc32)CC1	34.4
CC(=O)c1cccc(NC(=O)CN2CCCC(C3OCCO3)C2)c1 (stereo unspecified)	-7.07
NC(=O)c1cncc(-n2ccc(-c3cnccn3)n2)c1	-8.7
Cc1cc(C(=O)CN(Cc2cccnc2)CC2CCCO2)c(C)[nH]1 (stereo unspecified)	-15.9
CC(C)NC(=O)Nc1nc2c(s1)CN(C(=O)NCc1cccs1)CC2	-0.676
O=C(c1cc(=O)[nH][nH]1)N1CCCC2(CCC(=O)N(C3CCCC3)C2)C1 (stereo unspecified)	-5.45
O=C(C1CCOCC1)N1CCC2(CC1)CC(Oc1ccccc1)CO2 (stereo unspecified)	3.04
CCCNC(=O)CCC(=O)n1nc(C)c2ccccc21	1.02
CN(Cc1csc(-c2cccs2)n1)Cc1ncccc1C(=O)O	-12.2
Cc1ccc(CCNC(=O)N2CCCC(Cc3nccn3C)C2)cn1 (stereo unspecified)	1.34
O=C1COc2cc(C(=O)NCc3ccc(Cl)s3)ccc2N1	-2.5

Compound	cytotoxicity at 70.5 h [%]
CCc1ccsc1C(=O)N1CCCN(Cc2cscn2)CC1	3.8
O=C(CCC(=O)N1CCOCC1c1ccccc1)c1cccs1 (stereo unspecified)	-2.2
CN(C)c1ccc(CCCNC(=O)NCC(O)c2ccsc2)cc1 (stereo unspecified)	-3.63
CNCCN1C(=O)CC[C@H]2CN(c3cnc4ccccc4n3)CC[C@H]21	-2.89
COc1ccccc1CNc1c(N2CCN(C(C)=O)CC2)c(=O)c1=O	-10.2
O=C(C1CCOCC1)N1CCC(OCc2cccnc2)CC1	-12
O=C(c1ccc(O)nc1)N1CCN(C(=O)c2ccc(F)c(F)c2)CC1	-2.92
COc1ccc(NC(=O)Cn2ccc3c(=O)n(C)ccc32)cc1OC	-3.38
Cc1cc(C(F)(F)F)nc(CCNC(C)Cn2cncn2)n1 (stereo unspecified)	-11.4
CNC(=O)[C@@H]1C[C@@H]2CCN(Cc3ccoc3)C[C@H]2O1	-6.85
NC(=O)C1CCN(C(=O)NCc2ccccc2-n2cccn2)CC1	-4.82
O=C1N(c2ccsc2)CCC12CCCN(c1ccccn1)C2 (stereo unspecified)	5.29
Oc1cccc(CN2C[C@H]3CC[C@@H]2CN(Cc2ccncc2)C3)c1	-12.3
Cc1cc(C)n(CC2(CNC(=O)C(c3ccccc3C)N(C)C)CC2)n1 (stereo unspecified)	-10.8
Cc1noc(CCCC(=O)NC(C)c2cccnc2)n1 (stereo unspecified)	0.606
CCCS(=O)(=O)NC(=O)c1ccc(CC)o1	2.47
Cc1cccc(Nc2c(C#N)c(=O)n(C)c(=O)n2C)c1	-3.97
CC(C)CN1CC(c2nc(-c3ccc(F)cc3)c[nH]2)CC1=O (stereo unspecified)	-7.74
CCN(CC)S(=O)(=O)c1cc2c3c(c1)c(C)cc(=O)n3CCC2	36
O=C(c1ccnnc1)N1CCN2C[C@H](OCc3cccnc3)C[C@H]2C1	-8.22
COCc1nc(C(=O)NS(=O)(=O)c2ccc(OC)c(C)c2)cs1	-13.2

Compound	cytotoxicity at 70.5 h [%]
COc1ccc(C(=O)O)cc1-c1cccc2c1CCNC2	-11.6
CNC(=O)C1CCCN1C(=O)NCCCc1cccc(F)c1 (stereo unspecified)	1.01
Cc1cnc(CNC(=O)[C@@]23CCO[C@@H]2CCN(C2CCCC2)C3)cn1	-1.73
CC(Cn1cccn1)NCc1ccc(Cl)s1 (stereo unspecified)	-4.9
CCN1CCC2(CC1)CC(CC(=O)N(C)C)c1ccc(F)cc12 (stereo unspecified)	33.5
Cc1cc2n(n1)CC(CNC1CCN(CCc3ccccc3)CC1)CN2 (stereo unspecified)	0.368
CC(C)C(=O)NC1COC2(CCN(C(=O)c3cccnc3)CC2)C1 (stereo unspecified)	-3.81
Cc1cnn(CC2CN(CC(=O)Nc3cc(C)no3)CCO2)c1 (stereo unspecified)	-9.53
Cc1ccnn1CC(=O)Nc1cc(-c2ccncc2)[nH]n1	-6.24
CC(=O)Nc1nc(C(=O)N2CCCC(n3nc(C)nc3C)C2)cs1 (stereo unspecified)	-10.7
O=C(NS(=O)(=O)c1cccc(C(F)(F)F)c1)c1cnsn1	-5.69
CNC(=O)COc1ccc(CNCc2cc(F)ccc2F)cc1	-2.81
CCn1nc(C)c(CN(CCCOC)Cc2ccccn2)c1C	8.89
COc1ccc(CN2C[C@H]3CC[C@](O)(c4ccc(C)cn4)[C@H]3C2)c(F)c1	-0.817
Cc1cc2c(C)cc(O)cc2c(=O)o1	-14.8
CCN(C(C)=O)c1nc(CN2CCCCC2Cn2cncn2)cs1 (stereo unspecified)	-3.03
Cc1ccc(S(=O)(=O)Cc2noc([C@@H]3C[C@@H](O)CN3)n2)cc1	-3.28
CC(C)(C)C(=O)N1C[C@H](c2ccsc2)[C@H]2CN(C3CCCCC3)CC[C@H]21	-3.27
